In patent publication US8680159B2, “Bradykinin 1 receptor modulating compounds” (Gruenenthal GmbH, priority 2010, dated 2014):

target: T1, B1R receptor of the rat (CHO K1 cells stably transfected with the B1R gene of the rat) (Rattus norvegicus, UniProt P97583); experiment: Functional study on the bradykinin receptor 1 (B1R), Ca2+ fluorescence (Fluo-4) FLIPR/Novostar assay, rB1R cells; format: cell-based; settings: 10 μM
T1 construct: expressed in transfected cells; host or cells: CHO K1 cells (Chinese hamster ovary), stably transfected
T1 sequence (P97583 1-337): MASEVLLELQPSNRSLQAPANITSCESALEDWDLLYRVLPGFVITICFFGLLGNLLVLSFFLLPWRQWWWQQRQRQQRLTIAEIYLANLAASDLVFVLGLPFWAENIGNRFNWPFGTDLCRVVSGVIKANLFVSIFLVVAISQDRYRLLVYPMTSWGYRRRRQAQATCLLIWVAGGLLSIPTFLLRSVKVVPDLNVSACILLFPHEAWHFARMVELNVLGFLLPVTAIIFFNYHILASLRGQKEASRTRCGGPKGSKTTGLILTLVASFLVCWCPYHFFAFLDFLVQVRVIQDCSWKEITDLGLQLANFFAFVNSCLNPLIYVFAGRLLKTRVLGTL
Method: The agonistic or antagonistic action of substances can be quantified on the bradykinin receptor 1 (B1R) of the species human and rat using ectopically expressing cell lines (CHO K1 cells) and with the aid of a Ca^2+-sensitive dye (Fluo-4) using a fluorescent imaging plate reader (FLIPR). The indication in % activation is based on the Ca^2+ signal after addition of Lys-Des-Arg^9-bradykinin (0.5 nM) or Des-Arg^9-bradykinin (100 nM). Antagonists lead to suppression of the Ca^2+ influx after the addition of the agonist. % Inhibition compared with the maximum achievable inhibition is indicated.
The agonistic or antagonistic action of substances can be determined on the bradykinin receptor 1 (B1R) of the species human and rat using the following assay. According to this assay, the increase in intracellular Ca^2+ following administration of a B1R agonist is quantified with the aid of a Ca^2+-sensitive dye (Fluo-4 type, Molecular Probes Europe BV, Leiden, Netherlands) using a Fluorescent Imaging Plate Reader (FLIPR, Molecular Devices, Sunnyvale, USA) and/or using a Novostar (BMG Labtech GmbH, Offenburg, Germany).
Chinese hamster ovary cells (CHO K1 cells) which have been stably transfected with the human B1R gene (hB1R cells) or with the B1R gene of the rat (rB1R cells) are used. For functional studies, the cells are plated out on black 96-well plates having a clear base (BD Biosciences, Heidelberg, Germany or Greiner, Frickenhausen, Germany) in a density of 20,000-35,000 cells/well. The cells are left overnight at 37° C. and with 5% CO2 in culture medium (hB1R cells: Nutrient Mixture Ham's F12, Gibco Invitrogen GmbH, Karlsruhe, Germany or DMEM, Sigma-Aldrich, Taufkirchen, Germany; rB1R cells: D-MEM/F12, Gibco Invitrogen GmbH, Karlsruhe, Germany), with 10 vol. % FBS (fetal bovine serum, Gibco Invitrogen GmbH, Karlsruhe, Germany or PAN Biotech GmbH, Aidenbach, Germany). On the following day, the cells are loaded for 60 minutes at 37° C. with 2.13 μM Fluo-4 (Molecular Probes Europe BV, Leiden, Netherlands) in HBSS buffer (Hank's buffered saline solution, Gibco Invitrogen GmbH, Karlsruhe, Germany) […] (Sigma-Aldrich, Taufkirchen, Germany) and 10 mM HEPES (Sigma-Aldrich, Taufkirchen, Germany). The plates are then washed twice with HBSS buffer, and HBSS buffer additionally containing 0.1% BSA (bovine serum albumin; Sigma-Aldrich, Taufkirchen, Germany), 5.6 mM glucose and 0.05% gelatin (Merck KGaA, Darmstadt, Germany) is added to the plates. After incubation for a further 20 minutes at room temperature, the plates are inserted into the FLIPR or Novostar for Ca^2+ measurement. Alternatively, washing is carried out with buffer A (15 mM HEPES, 80 mM NaCl, 5 mM KCl, 1.2 mM CaCl2, 0.7 mM MgSO4, 2 g/l glucose, 2.5 mM probenecid) followed by loading with buffer A with added 2.5 μM Fluo-4 and 0.025% Pluronic F127 (Sigma-Aldrich, Taufkirchen, Germany). The cells are then washed twice with buffer A and incubated for 30 minutes at room temperature with buffer A additionally containing 0.05% BSA and 0.05% gelatin and are then inserted into the FLIPR or Novostar for Ca^2+ measurement. The Ca^2+-dependent fluorescence is measured before and after the addition of substances (λex=488 nm, λem=540 nm). Quantification is carried out by measuring the highest fluorescence intensity (FC, fluorescence counts) over time.
The FLIPR protocol consists of 2 substance additions, which are pipetted in the FLIPR. In the case of measurements using the Novostar, only the second substance addition is pipetted in the device. Both devices measure the fluorescence intensity over time. Test substances (10 μM) are first pipetted onto the cells and the intracellular Ca^2+ increase is compared with the control (hB1R: Lys-Des-Arg^9-bradykinin>=50 nM; rB1R: Des-Arg^9-bradykinin>=1 μM). This gives the % activation, based on the Ca^2+ signal after addition of Lys-Des-Arg^9-bradykinin (>=50 nM) or Des-Arg^9-bradykinin (>=1 μM). […]

% Inhibition (r-B1R) at 10 μM [%] | Structure (SMILES)
107 | CN(C(=O)NC1CC(C)(C)c2ccc(C(=O)N(C)C3CCN(c4ccncc4)CC3)cc21)c1ccccc1Cl (stereo not shown) [CC_H-245, 3-[[(2-Chlorophenyl)-methyl-carbamoyl]amino]-N,1,1-trimethyl-N-(1-pyridin-4-yl-piperidin-4-yl)-2,3-dihydro-indene-5-carboxylic acid amide]
110 | CN(C(=O)c1ccc2c(c1)C(NC(=O)c1c(Cl)cccc1C(F)(F)F)CCC2)C1CCN(c2ccncc2)CC1 (stereo not shown) [CC_H-249, 8-[[2-Chloro-6-(trifluoromethyl)-benzoyl]amino]-N-methyl-N-(1-pyridin-4-yl-piperidin-4-yl)-5,6,7,8-tetrahydro-naphthalene-2-carboxylic acid amide]

same assay, conditions: CHO-K1, 10 μM, read-out: % Inhibition (r-B1R) at 10 μM

inhibition at 10 µM [%] | Structure (SMILES)
103 | CN(C(=O)c1ccc2c(c1)C(NC(=O)C1CC1)CCC2)C1CCN(c2ccncc2)CC1 (stereo not shown) [CC_H-250, 8-(Cyclopropanecarbonylamino)-N-methyl-N-(1-pyridin-4-yl-piperidin-4-yl)-5,6,7,8-tetrahydro-naphthalene-2-carboxylic acid amide]
111 | CN(C(=O)c1ccc2c(c1)C(NC(=O)CC(C)(C)C)CCC2)C1CCN(c2ccncc2)CC1 (stereo not shown) [CC_H-251, 8-(3,3-Dimethyl-butanoylamino)-N-methyl-N-(1-pyridin-4-yl-piperidin-4-yl)-5,6,7,8-tetrahydro-naphthalene-2-carboxylic acid amide]
107 | COCC(=O)NC1CCCc2ccc(C(=O)N(C)C3CCN(c4ccncc4)CC3)cc21 (stereo not shown) [CC_H-252, 8-[(2-Methoxy-acetyl)amino]-N-methyl-N-(1-pyridin-4-yl-piperidin-4-yl)-5,6,7,8-tetrahydro-naphthalene-2-carboxylic acid amide]
110 | CC(=O)NC1CCCc2ccc(C(=O)N(C)C3CCN(c4ccncc4)CC3)cc21 (stereo not shown) [CC_H-253, 8-Acetylamino-N-methyl-N-(1-pyridin-4-yl-piperidin-4-yl)-5,6,7,8-tetrahydro-naphthalene-2-carboxylic acid amide]
111 | CN(C(=O)c1ccc2c(c1)C(NC(=O)c1cccc(C(F)(F)F)c1Cl)CCC2)C1CCN(c2ccncc2)CC1 (stereo not shown) [CC_H-254, 8-[[2-Chloro-3-(trifluoromethyl)-benzoyl]amino]-N-methyl-N-(1-pyridin-4-yl-piperidin-4-yl)-5,6,7,8-tetrahydro-naphthalene-2-carboxylic acid amide]
104 | CN(C(=O)c1ccc2c(c1)C(NC(=O)Nc1ccccc1Cl)CCC2)C1CCN(c2ccncc2)CC1 (stereo not shown) [CC_H-255, 8-[[(2-Chlorophenyl)-carbamoyl]amino]-N-methyl-N-(1-pyridin-4-yl-piperidin-4-yl)-5,6,7,8-tetrahydro-naphthalene-2-carboxylic acid amide]
96 | CN(C(=O)c1ccc2c(c1)C(NC(=O)Nc1cccc(Cl)c1)CCC2)C1CCN(c2ccncc2)CC1 (stereo not shown) [CC_H-256, 8-[[(3-Chlorophenyl)-carbamoyl]amino]-N-methyl-N-(1-pyridin-4-yl-piperidin-4-yl)-5,6,7,8-tetrahydro-naphthalene-2-carboxylic acid amide]
107 | CN(C(=O)c1ccc2c(c1)C(NC(=O)Nc1c(Cl)cccc1Cl)CCC2)C1CCN(c2ccncc2)CC1 (stereo not shown) [CC_H-257, 8-[[(2,6-Dichloro-phenyl)-carbamoyl]amino]-N-methyl-N-(1-pyridin-4-yl-piperidin-4-yl)-5,6,7,8-tetrahydro-naphthalene-2-carboxylic acid amide]

More lines, now with the values behind:

Structure (SMILES) | inhibition at 10 µM [%]
CN(C(=O)c1ccc2c(c1)C(NC(=O)Nc1ccccc1Cl)CC2(C)C)C1CCN(c2ccncc2)CC1 (stereo not shown) [CC_H-232, 3-[[(2-Chlorophenyl)-carbamoyl]amino]-N,1,1-trimethyl-N-(1-pyridin-4-yl-piperidin-4-yl)-2,3-dihydro-indene-5-carboxylic acid amide] | 96
CN(C(=O)c1ccc2c(c1)C(NC(=O)Nc1cccc(Cl)c1)CC2(C)C)C1CCN(c2ccncc2)CC1 (stereo not shown) [CC_H-233, 3-[[(3-Chlorophenyl)-carbamoyl]amino]-N,1,1-trimethyl-N-(1-pyridin-4-yl-piperidin-4-yl)-2,3-dihydro-indene-5-carboxylic acid amide] | 63
CN(C(=O)c1ccc2c(c1)C(NC(=O)Nc1c(Cl)cccc1Cl)CC2(C)C)C1CCN(c2ccncc2)CC1 (stereo not shown) [CC_H-234, 3-[[(2,6-Dichloro-phenyl)-carbamoyl]amino]-N,1,1-trimethyl-N-(1-pyridin-4-yl-piperidin-4-yl)-2,3-dihydro-indene-5-carboxylic acid amide] | 108
CN(C(=O)c1ccc2c(c1)C(NC(=O)Nc1cccc(Cl)c1Cl)CC2(C)C)C1CCN(c2ccncc2)CC1 (stereo not shown) [CC_H-235, 3-[[(2,3-Dichloro-phenyl)-carbamoyl]amino]-N,1,1-trimethyl-N-(1-pyridin-4-yl-piperidin-4-yl)-2,3-dihydro-indene-5-carboxylic acid amide] | 65
CN(C(=O)c1ccc2c(c1)C(NC(=O)Nc1cc(Cl)ccc1Cl)CC2(C)C)C1CCN(c2ccncc2)CC1 (stereo not shown) [CC_H-236, 3-[[(2,5-Dichloro-phenyl)-carbamoyl]amino]-N,1,1-trimethyl-N-(1-pyridin-4-yl-piperidin-4-yl)-2,3-dihydro-indene-5-carboxylic acid amide] | 52
CN(C(=O)c1ccc2c(c1)C(NC(=O)Nc1ccc(F)c(Cl)c1)CC2(C)C)C1CCN(c2ccncc2)CC1 (stereo not shown) [CC_H-242, 3-[[(3-Chloro-4-fluoro-phenyl)-carbamoyl]amino]-N,1,1-trimethyl-N-(1-pyridin-4-yl-piperidin-4-yl)-2,3-dihydro-indene-5-carboxylic acid amide] | 52
CN(C(=O)c1ccc2c(c1)C(NC(=O)c1cc(F)ccc1Cl)CCC2)C1CCN(c2ccncc2)CC1 (stereo not shown) [CC_H-246, 8-[(2-Chloro-5-fluoro-benzoyl)amino]-N-methyl-N-(1-pyridin-4-yl-piperidin-4-yl)-5,6,7,8-tetrahydro-naphthalene-2-carboxylic acid amide] | 112
CN(C(=O)c1ccc2c(c1)C(NC(=O)c1cc(C(F)(F)F)ccc1Cl)CCC2)C1CCN(c2ccncc2)CC1 (stereo not shown) [CC_H-247, 8-[[2-Chloro-5-(trifluoromethyl)-benzoyl]amino]-N-methyl-N-(1-pyridin-4-yl-piperidin-4-yl)-5,6,7,8-tetrahydro-naphthalene-2-carboxylic acid amide] | 112
Cc1ccc(F)c(C(=O)NC2CCCc3ccc(C(=O)N(C)C4CCN(c5ccncc5)CC4)cc32)c1Cl (stereo not shown) [CC_H-248, 8-[(2-Chloro-6-fluoro-3-methyl-benzoyl)amino]-N-methyl-N-(1-pyridin-4-yl-piperidin-4-yl)-5,6,7,8-tetrahydro-naphthalene-2-carboxylic acid amide] | 111
